This note sets out measurements from publication PMC10600239, “Selective MCL-1 inhibitor ABBV-467 is efficacious in tumor models but is associated with cardiac troponin increases in patients” (Communications Medicine, 2023).

In this test the test system is OPM-2 xenografts. Kind of test: OPM-2 xenograft efficacy (tumor volume, body weight). It counts as in vivo, mouse. Particulars: 6.25 mg/kg IV once weekly for 3 weeks. Here is the method:
All animal studies were conducted in accordance with the guidelines approved by the Institutional Animal Care and Use Committees of AbbVie. The research protocol was approved by In Vivo Pharmacology at AbbVie prior to study initiation but was not publicly registered or disclosed. Female C.B-17 SCID-beige mice (AMO-1, OPM-2, NCI-H929, and OCI-AML2 xenografts) and female NSG mice (MV4-11-Red.Fluc systemic) were purchased from Charles River Laboratories (Wilmington, MA). Animals were housed in a light cycle-controlled room with HEPA filtration at 22 °C. Animals had nesting and climbing cage topper as the primary environmental enrichment. Animals were inoculated subcutaneously in the right flank with 5 × 10^6 (AMO-1, OPM-2, NCI-H929, and OCI-AML2) or intravenous (IV) with 5 × 10^6 (MV4-11-Red.Fluc). The inoculation volume (0.2 mL) comprised a 50:50 mixture of cells in growth media and Matrigel (BD Biosciences) for subcutaneous injections and 100% phosphate-buffered saline for IV administration. All cell lines used in this publication were authenticated using IDEXX for STR profiling as well as their IMPACT and human IMPACT panels for pathogen screening. Electronic calipers were used to measure the length and width of each tumor 2 to 3 times per week. Tumor volume was estimated by applying the following equation: volume = length × width^2/2. All groups remained blinded during measurements and dosing; only veterinary staff were aware of group identity. When tumors reached approximately 200 mm^3, mice were randomized by match and distributed into treatment and control groups. All xenograft trials were conducted using 5 to 10 mice per group, and all mice were ear tagged and monitored individually throughout the studies. Any animal with a tumor above 2000 mm^3 or 15% loss in body weight was euthanized and removed from the study. Tumor burden in the systemic MV4-11-Red.Fluc experiment was measured using an IVIS® spectrum from PerkinElmer by taking the total photon flux of the entire dorsal side of an individual mouse. Ten minutes prior to imaging, animals received intraperitoneally 0.2 mL of a 15-mg/mL solution of D-Luciferin (PerkinElmer, Catalog #122799) formulated in 100% phosphate-buffered saline. Animals were anesthetized using 3.5% isoflurane and maintained using 2%. Six days after inoculation, animals were imaged and randomized into vehicle and treatment groups at a total flux of ~1 × 10^8. A background control mouse that was tumor naive but received D-Luciferin was placed in the upper left corner of each image. The total flux from this animal was subtracted from the total flux of each animal present in the image.
For in vivo studies, maximal tumor growth inhibition (TGI) was calculated as the greatest treatment response using the following equation: Maximal TGI = (1 − mean tumor volume of the treated group/mean tumor volume of the vehicle control group) × 100. The tumor growth delay (TGD) percentage was determined as the percentage increase of the median time period for the treatment group to reach an arbitrary tumor volume of 1000 mm^3 relative to the vehicle control group. […] A power analysis was conducted using historical data to determine the number of animals required to yield significance of 0.05 at a 30% difference. There were no animals excluded. Data from experiments in vivo were analyzed using the student’s t-test for TGI values and the Mann–Whitney U test for TGD using Excel and GraphPad Prism. Fisher’s exact test was used to probe significance of differences in response frequency.

With `Cc1c(Cl)c2c(Cl)c(C)c1-c1c(-c3ccc(F)cc3)sc3ncnc(c13)O[C@@H](C(=O)O)Cc1cc(ccc1OCc1ccnc(-c3ccc(OC[C@H]4COCCO4)cc3)n1)OC[C@@H](CN1CCN(C)CC1)O2` [ABBV-467], the “maximal TGD” value is reported as 82%.
